The record followed here is patent publication US9447086B2, “6-amino acid heteroaryldihydropyrimidines for the treatment and prophylaxis of hepatitis B virus infection” (priority 2012, dated 2016).

In brackets after ≈: the same amount, converted by molar mass. Some results are limits rather than exact numbers.

Data set [1] is described as follows: Metabolic stability study in human microsome. The format is in vitro ADME. In outline: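 Depletion of 1 μM compound followed by LC-MS/MS over 0–30 min (0, 3, 6, 9, 15, 30 min) after methanol quench. Incubations at 37 °C, pH 7.4 phosphate buffer, 0.5 mg/mL microsomal protein, with NADPH (1 mM) or a regenerating system as cofactor; controls lacked cofactor.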
The test system of data set [2] is HBV. Kind of data set: Selectivity index (CC50 value/EC50 value). The format is cell-based, Hepatitis B virus. From the text: Based on FDA guidance, in order to support clinical testing in humans, the assessment of acceptable risk-benefit has to be achieved by providing clear evidence of in vitro antiviral activity (EC50) and cytotoxicity (CC50). It is important to establish that an investigational product has antiviral activity at concentrations that can be achieved in vivo without inducing toxic effects to cells. Furthermore, in a cell culture model, apparent antiviral activity of an investigational product can be the result of host cell death after exposure to the product. The relative effectiveness of the compound in inhibiting viral replication compared to inducing cell death is defined as the selectivity index (CC50 value/EC50 value). It is desirable to have a high selectivity index giving maximum antiviral activity with minimal cell toxicity.
The relative effectiveness of the compound in inhibiting viral replication compared to inducing cell death is defined as the selectivity index (CC50 value/EC50 value). It is desirable to have a high selectivity index giving maximum antiviral activity with minimal cell toxicity.

The nature of data set [3]: Cytotoxicity (CC50) in HepDE19 cells, CCK-8 cell viability. In kind it is cell-based. Conditions: human, HepDE19 cells; read-out: CC50. The text has this:
HepG2.2.15 and HepDE19 are stably-transfected cell lines containing the HBV genome. Both cell lines are derived from the hepatoblastoma cell line Hep G2 (American Type Culture Collection, ATCC® HB-8065™) by the published procedures described in references: MA Selles et al. Proc. Natl. Acad. Sci. USA 1987, 84, 1005-1009 and H Guo et al. Journal of Virology 2007, 81, 12472-12484, respectively. Both cell lines were maintained in Dulbecco's modified Eagle's medium (DMEM)-F12 medium supplemented with 10% fetal bovine serum, 100 U/mL penicillin, 100 μg/mL streptomycin, and 0.5 mg/mL of G418.
Five days after treatment, cell viability was measured by addition of 20 μL of CCK-8 reagent. Two hours after incubation at 37° C., the absorbance at wavelengths of 450 nm and 630 nm (OD450 and OD630) was recorded by a plate reader.

A short description of data set [4]: Lyophilisation solubility assay (Lysa). The format is physicochemical. The conditions noted are these: phosphate buffer, pH 6.5, aqueous buffer, thermodynamic from solid. In outline: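 Solubility in μg/mL is read by UV or HPLC-UV on filtrate, neat and diluted 1/10. Before filtration, the residue from evaporated 10 mM DMSO stock was taken up in pH 6.5 0.05 M phosphate buffer, then stirred 1 h, shaken 2 h and stood overnight, in duplicate.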

The test system of data set [5] is HBV. In words: Anti-HBV activity in vitro in HepG2.2.15 cells (extracellular HBV DNA by qPCR). The format is cell-based, Hepatitis B virus. Conditions: Hepatitis B virus; HepG2.2.15 cells; in-house data; read-out: EC50. In outline:
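Supernatant HBV DNA was measured by qPCR after viral DNA extraction. Samples came from 5-day cultures of HepG2.2.15 cells, an HBV-genome-transfected HepG2 line, exposed to half-log compound dilutions in medium containing 0.5% DMSO.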

By CC50 is commonly meant the concentration that lowers cell viability or growth by half. For orientation: thermodynamic solubility means solubility found after equilibrating the solid with the medium. The EC50 is the midpoint of the concentration-response curve. For `CCOC(=O)C1=C(CN2CCOC[C@H]2C(=O)O)NC(c2nccn2C)=N[C@H]1c1ccc(F)cc1Cl` [Example 35, (S)-4-[(R)-6-(2-Chloro-4-fluoro-phenyl)-5-ethoxycarbonyl-2-(1-methyl-1H-imidazol-2-yl)-3,6-dihydro-pyrimidin-4-ylmethyl]-morpholine-3-carboxylic acid], the “Human Hepatic Clearance” value in data set [1] came to 8.86 mL/min/kg. Further, the “Selectivity index (CC50/EC50)” value in data set [2] is reported as 12987. In addition, in data set [3], the CC50 at 5 days was more than 100000 nM. For the same molecule, the thermodynamic solubility in data set [4] was more than 599 µg/mL. Moreover, in data set [5], the EC50 is 7.7 nM.
On the same counts, the results for `CCOC(=O)C1=C(CN2CC(F)(F)C[C@H]2C(=O)O)NC(c2nccn2C)=N[C@H]1c1ccc(F)cc1Cl` [Example 36, (R)-6-((S)-2-Carboxy-4,4-difluoro-pyrrolidin-1-ylmethyl)-4-(2-chloro-4-fluoro-phenyl)-2-(1-methyl-1H-imidazol-2-yl)-1,4-dihydro-pyrimidine-5-carboxylic acid ethyl ester] are 6.22 mL/min/kg, 1251, 23000 nM, more than 637 µg/mL and 18 nM.
Consider `CCOC(=O)C1=C(CN2CC(F)(F)C[C@H]2C(=O)O)NC(c2nccs2)=N[C@H]1c1ccc(Cl)cc1Cl` [Example 38, (R)-6-((S)-2-Carboxy-4,4-difluoro-pyrrolidin-1-ylmethyl)-4-(2,4-dichloro-phenyl)-2-thiazol-2-yl-1,4-dihydro-pyrimidine-5-carboxylic acid ethyl ester], for which, in data set [1], the “Human Hepatic Clearance” value came to 9.3 mL/min/kg. Moreover, the “Selectivity index (CC50/EC50)” value in data set [2] amounted to 6315. Besides, in data set [3], the CC50 at 5 days was determined as 21000 nM. The same molecule returned a thermodynamic solubility in data set [4] of 291 µg/mL (≈ 534 µM). Also, the EC50 in data set [5] stood at 3.3 nM.
As for `CCOC(=O)C1=C(CN2CC(F)(F)C[C@H]2C(=O)O)NC(c2nccs2)=N[C@H]1c1ccc(F)c(F)c1` [Example 41, (S)-6-((S)-2-Carboxy-4,4-difluoro-pyrrolidin-1-ylmethyl)-4-(3,4-difluoro-phenyl)-2-thiazol-2-yl-1,4-dihydro-pyrimidine-5-carboxylic acid ethyl ester], in data set [1], the “Human Hepatic Clearance” value was 6.83 mL/min/kg. The “Selectivity index (CC50/EC50)” value in data set [2] came to 2372. Moreover, the CC50 at 5 days in data set [3] was found to be 40000 nM. The molecule also returned a thermodynamic solubility in data set [4] of more than 630 µg/mL. Moreover, the concentration for a half-maximal effect (EC50) in data set [5] amounted to 17 nM.
In the case of `CCOC(=O)C1=C(CN2CCOC[C@H]2C(=O)O)NC(c2nccs2)=N[C@H]1c1ccc(F)c(F)c1` [Example 42, (S)-4-[(S)-6-(3,4-Difluoro-phenyl)-5-ethoxycarbonyl-2-thiazol-2-yl-3,6-dihydro-pyrimidin-4-ylmethyl]-morpholine-3-carboxylic acid], the “Human Hepatic Clearance” value in data set [1] was determined as 5.56 mL/min/kg. Further, the “Selectivity index (CC50/EC50)” value in data set [2] is on record as more than 10000. For the same molecule, the CC50 at 5 days in data set [3] is more than 100000 nM. The molecule also showed a solubility (thermodynamic) in data set [4] of more than 613 µg/mL. Further, the EC50 in data set [5] worked out at 10 nM.
With `CCOC(=O)C1=C(CN2CCOC[C@H]2C(=O)O)NC(c2nccs2)=N[C@H]1c1cc(F)c(F)c(F)c1` [Example 43, (S)-4-[(S)-5-Ethoxycarbonyl-2-thiazol-2-yl-6-(3,4,5-trifluoro-phenyl)-3,6-dihydro-pyrimidin-4-ylmethyl]-morpholine-3-carboxylic acid], the “Human Hepatic Clearance” value in data set [1] was 1.2 mL/min/kg. In data set [2], the “Selectivity index (CC50/EC50)” value was more than 5556. In data set [3], the CC50 at 5 days was more than 100000 nM. For the same molecule, in data set [4], the thermodynamic solubility is more than 606 µg/mL. Further, the 50% effective concentration (EC50) in data set [5] came out at 18 nM.
Regarding `CCOC(=O)C1=C(CN2CCOC[C@H]2C(=O)O)NC(c2nccs2)=N[C@H]1c1ccc(F)c(F)c1F` [Example 44, (S)-4-[(R)-5-Ethoxycarbonyl-2-thiazol-2-yl-6-(2,3,4-trifluoro-phenyl)-3,6-dihydro-pyrimidin-4-ylmethyl]-morpholine-3-carboxylic acid], in data set [1], the “Human Hepatic Clearance” value was 4.46 mL/min/kg. The “Selectivity index (CC50/EC50)” value in data set [2] came to 10748. For the same molecule, the CC50 at 5 days in data set [3] turned out to be 49000 nM. The same molecule had a thermodynamic solubility in data set [4] of more than 626 µg/mL. In addition, in data set [5], the concentration for a half-maximal effect (EC50) came out at 4.6 nM.
For `CCOC(=O)C1=C(CN2CCOC[C@H]2C(=O)O)NC(c2nccs2)=N[C@H]1c1ccc(Cl)c(Cl)c1` [Example 46, (S)-4-[(S)-6-(3,4-Dichloro-phenyl)-5-ethoxycarbonyl-2-thiazol-2-yl-3,6-dihydro-pyrimidin-4-ylmethyl]-morpholine-3-carboxylic acid], the “Human Hepatic Clearance” value in data set [1] is given as 0 mL/min/kg. Moreover, the “Selectivity index (CC50/EC50)” value in data set [2] came to 2212. In addition, the CC50 at 5 days in data set [3] was found to be 36000 nM. Further, the thermodynamic solubility in data set [4] is more than 655 µg/mL. The half-maximal effective concentration (EC50) in data set [5] was 16 nM.
Take `CCOC(=O)C1=C(CN2CCOC[C@H]2C(=O)O)NC(c2nccs2)=N[C@H]1c1ccc(Cl)cc1F` [Example 49, (S)-4-[(R)-6-(4-Chloro-2-fluoro-phenyl)-5-ethoxycarbonyl-2-thiazol-2-yl-3,6-dihydro-pyrimidin-4-ylmethyl]-morpholine-3-carboxylic acid]: in data set [1], the “Human Hepatic Clearance” value is on record as 0 mL/min/kg. The “Selectivity index (CC50/EC50)” value in data set [2] was 8936. The CC50 at 5 days in data set [3] stood at 42000 nM. Moreover, the solubility (thermodynamic) in data set [4] was more than 679 µg/mL. For the same molecule, the concentration for a half-maximal effect (EC50) in data set [5] was 4.7 nM.
In the case of `CCOC(=O)C1=C(CN2CC(F)(F)C[C@H]2C(=O)O)NC(c2nccs2)=N[C@H]1c1cccc(F)c1F` [Example 50, (R)-6-((S)-2-Carboxy-4,4-difluoro-pyrrolidin-1-ylmethyl)-4-(2,3-difluoro-phenyl)-2-thiazol-2-yl-1,4-dihydro-pyrimidine-5-carboxylic acid ethyl ester], the “Human Hepatic Clearance” value in data set [1] is on record as 0 mL/min/kg. Besides, in data set [2], the “Selectivity index (CC50/EC50)” value is reported as 1905. Moreover, in data set [3], the CC50 at 5 days was 26000 nM. Moreover, the solubility (thermodynamic) in data set [4] was more than 580 µg/mL. For the same molecule, the EC50 in data set [5] stood at 14 nM.
`CCOC(=O)C1=C(CN2CCOC[C@H]2C(=O)O)NC(c2nccs2)=N[C@H]1c1ccc(Br)c(F)c1` [Example 52, (S)-4-[(S)-6-(4-Bromo-3-fluoro-phenyl)-5-ethoxycarbonyl-2-thiazol-2-yl-3,6-dihydro-pyrimidin-4-ylmethyl]-morpholine-3-carboxylic acid]: the “Human Hepatic Clearance” value in data set [1] amounted to 4.03 mL/min/kg. The “Selectivity index (CC50/EC50)” value in data set [2] is 4693. In addition, in data set [3], the CC50 at 5 days was 14000 nM. For the same molecule, the thermodynamic solubility in data set [4] is more than 665 µg/mL. Also, the EC50 in data set [5] stood at 3 nM.
As to `CCOC(=O)C1=C(CN2CCOC[C@H]2C(=O)O)NC(c2nccs2)=N[C@H]1c1cccc(F)c1` [Example 53, (S)-4-[(S)-5-Ethoxycarbonyl-6-(3-fluoro-phenyl)-2-thiazol-2-yl-3,6-dihydro-pyrimidin-4-ylmethyl]-morpholine-3-carboxylic acid], in data set [1], the “Human Hepatic Clearance” value is on record as 0 mL/min/kg. For the same molecule, in data set [2], the “Selectivity index (CC50/EC50)” value came to 4769. Moreover, in data set [3], the CC50 at 5 days was 69000 nM. This molecule displayed a thermodynamic solubility in data set [4] of more than 621 µg/mL. In addition, the EC50 in data set [5] came to 14 nM.
For `CCOC(=O)C1=C(CN2CCOC[C@H]2C(=O)O)NC(c2nccn2C)=N[C@H]1c1ccc(F)c(F)c1` [Example 57, (S)-4-[(S)-6-(3,4-Difluoro-phenyl)-5-ethoxycarbonyl-2-(1-methyl-1H-imidazol-2-yl)-3,6-dihydro-pyrimidin-4-ylmethyl]-morpholine-3-carboxylic acid] the same measures were 0 mL/min/kg, 2384, 35000 nM, more than 613 µg/mL and 15 nM.
Consider `CCOC(=O)C1=C(CN2CC(F)(F)C[C@H]2C(=O)O)NC(c2nccs2)=N[C@H]1c1ccc(F)cc1F` [Example 59, (R)-6-((S)-2-Carboxy-4,4-difluoro-pyrrolidin-1-ylmethyl)-4-(2,4-difluoro-phenyl)-2-thiazol-2-yl-1,4-dihydro-pyrimidine-5-carboxylic acid ethyl ester], for which the “Human Hepatic Clearance” value in data set [1] worked out at 3.5 mL/min/kg. Further, the “Selectivity index (CC50/EC50)” value in data set [2] was determined as 3935. Also, the CC50 at 5 days in data set [3] was found to be 52000 nM. In data set [4], this molecule gave a solubility (thermodynamic) of more than 630 µg/mL. The EC50 in data set [5] is 13 nM.
